Results from ChEMBL document CHEMBL5137041, “Total Syntheses and Cytotoxicity Evaluation of Coryaurone A and Representative Analogues” (J Nat Prod, 2022).

Assays:
SW480 = experiment: Cytotoxicity against human SW480 cells assessed as cell growth inhibition incubated for 48 hrs by MTS assay; assay type: functional, cell-based; conditions: SW480, 48 h
HL-60 = experiment: Cytotoxicity against human HL-60 cells assessed as cell growth inhibition incubated for 48 hrs by MTS assay; assay type: functional, cell-based; conditions: HL-60, 48 h

## CC(C)(O)[C@H]1Cc2c(ccc3c2O/C(=C\c2ccc(O)c(O)c2)C3=O)O1
SW480
  IC50: 13 µM
HL-60
  IC50: 18 µM

## CC(C)(O)[C@H]1Cc2c(ccc3c2O/C(=C\c2cccc4cccnc24)C3=O)O1
SW480
  IC50: > 40 µM
HL-60
  IC50: > 40 µM

## CC(C)(O)[C@H]1Cc2c(ccc3c2O/C(=C\c2ccc(Cl)cc2)C3=O)O1
SW480
  IC50: 7.7 µM
HL-60
  IC50: > 40 µM

## COc1ccc(/C=C2\Oc3c(ccc4c3C[C@H](C(C)(C)O)O4)C2=O)cc1
SW480
  IC50: > 40 µM
HL-60
  IC50: > 40 µM

## CC(C)(O)[C@H]1Cc2c(ccc3c2O/C(=C\c2ccc(O)c(Cl)c2)C3=O)O1
SW480
  IC50: 35 µM
HL-60
  IC50: 14 µM

## CC(C)(O)[C@H]1Cc2c(ccc3c2O/C(=C\c2ccco2)C3=O)O1
SW480
  IC50: 39 µM
HL-60
  IC50: 28 µM

## CC(C)(O)[C@H]1Cc2c(ccc3c2OCC3=O)O1
SW480
  IC50: > 40 µM
HL-60
  IC50: > 40 µM

## CC(C)(O)[C@H]1Cc2c(ccc3c2OC(Cc2ccc(O)c(O)c2)C3)O1 (stereo not given in full)
SW480
  IC50: > 40 µM
HL-60
  IC50: > 40 µM

## CC(C)(O)[C@H]1Cc2c(ccc3c2O/C(=C\c2ccc(O)c(C(=O)O)c2)C3=O)O1
SW480
  IC50: > 40 µM
HL-60
  IC50: > 40 µM

## Cc1cc(/C=C2\Oc3c(ccc4c3C[C@H](C(C)(C)O)O4)C2=O)ccc1O
SW480
  IC50: 11 µM
HL-60
  IC50: > 40 µM

## CC(C)(O)[C@H]1Cc2c(ccc3c2O/C(=C\c2ccc(O)cc2)C3=O)O1
SW480
  IC50: > 40 µM
HL-60
  IC50: > 40 µM

## COc1ccc(/C=C2\Oc3c(ccc4c3C[C@H](C(C)(C)O)O4)C2=O)cc1O
SW480
  IC50: 20 µM
HL-60
  IC50: 3.9 µM

## CC(C)(O)[C@H]1Cc2c(ccc3c2O/C(=C\c2ccc(C(F)(F)F)cc2)C3=O)O1
SW480
  IC50: > 40 µM
HL-60
  IC50: 16 µM

## CC(C)(O)[C@H]1Cc2c(ccc3c2O/C(=C\c2ccccc2)C3=O)O1
SW480
  IC50: > 40 µM
HL-60
  IC50: > 40 µM

## CC(C)(O)[C@H]1Cc2c(ccc3c2O/C(=C\c2cc([N+](=O)[O-])ccc2O)C3=O)O1
SW480
  IC50: 23 µM
HL-60
  IC50: 12 µM

## CC(C)(O)[C@H]1Cc2c(ccc3c2O/C(=C\c2ccc([N+](=O)[O-])cc2)C3=O)O1
SW480
  IC50: 9.2 µM
HL-60
  IC50: > 40 µM

## CC(C)(O)[C@H]1Cc2c(ccc3c2O/C(=C\c2ccc4[nH]ccc4c2)C3=O)O1
SW480
  IC50: > 40 µM
HL-60
  IC50: > 40 µM

## CC(C)(O)[C@H]1Cc2c(ccc3c2O/C(=C\c2cccs2)C3=O)O1
SW480
  IC50: > 40 µM
HL-60
  IC50: > 40 µM

## COc1cc(/C=C2\Oc3c(ccc4c3C[C@H](C(C)(C)O)O4)C2=O)cc(OC)c1OC
SW480
  IC50: > 40 µM
HL-60
  IC50: 22 µM

## CC(C)=CCc1c(O)ccc2c1O/C(=C\c1ccc(O)c(O)c1)C2=O [LICOAGROAURONE]
SW480
  IC50: 8.2 µM
HL-60
  IC50: 19 µM
